Laboratory results as given in patent EP4745135A1 (Gluetacs Therapeutics (Shanghai) Co., Ltd., priority 2023, dated 2025).

Legend:
[1] = system: Human acute T lymphocytic leukemia cell (Molt4); experiment: Tumor cell proliferation inhibition (CellTiter-Meiluncell luminescent cell viability assay); details: MOLT-4, 96 h; for inhibition at 0.01 µM: read-out: Inhibition Rate at 10 nM (%); for inhibition at 0.5 µM: read-out: Inhibition Rate at 500 nM (%)
GSPT1 = experiment: Western blot, degradation of substrate protein in hPBMCs; format: cell-based, Human
[2] = system: Human multiple myeloma peripheral blood B lymphocyte cell (RPMI-8226); experiment: Tumor cell proliferation inhibition (CellTiter-Meiluncell luminescent cell viability assay); details: RPMI-8226, 96 h; for inhibition at 0.01 µM: read-out: Inhibition Rate at 10 nM (%); for inhibition at 0.5 µM: read-out: Inhibition Rate at 500 nM (%)
Protocol: The tumor cells used herein were cultured in a cell culture medium listed in table 2 at 37°C in an incubator with 5% CO2. Prior to experimentation, all cell lines used were correctly identified by STR profiling, and tested negative for mycoplasma contamination using a mycoplasma detection kit through routine screenings.
The IC50 values of the compounds of the present disclosure (including the compounds in Table 1 and Examples) were determined using the CellTiter-Meiluncell Luminescent Cell Viability Assay Kit from Dalian Meilun Biotech Co., Ltd. The detailed procedure is as follows: Tumor cells were seeded in 96-well cell culture plates at the densities specified in Table 3. On the following day, the test compounds of the present disclosure were subjected to serial dilution. The dilution can be performed according to one of the following two methods: • (1) The first dilution method: The test compounds of the present disclosure (including the compounds in Table 1 and Examples) were subjected to 5-fold serial dilutions starting from a highest concentration of 2000 µM, resulting in a total of 9 concentrations from high to low (2000, 400, 80, 16, 3.2, 0.64, 0.128, 0.0256, 0.00512 µM). Subsequently, 0.5 µL of the test compound dilution was transferred into the 96-well plate containing the cells, with each well containing 100 µL of cell culture medium. […] Into the 96-well plate, the diluted test compounds and corresponding detection reagents were added, resulting in final test compound concentrations of 500 nM and 10 nM, respectively. The experimental procedure is described below using the diluted 2 µM test compound as an example.
0.5 µL of the aforementioned diluted compound of the present disclosure (including the compounds in Table 1 and Examples) was added to the seeded cells in 100 µL of medium, yielding a final test compound concentration of 10 nM. After the cells were treated with the compounds of the present disclosure for a specified period, the cell viability assay reagent was added to the culture medium according to the kit's instructions to determine cell viability. […] All controls were treated using the same procedure as the compounds of the present disclosure. The growth inhibition curves for the compounds of the present disclosure were plotted using Prism GraphPad software, and the IC50 values were calculated therefrom.

[3] = system: Human myeloid monocytic leukemia cell (MV-4-11); experiment: as above; details: MV4-11, 96 h; for inhibition at 0.01 µM: read-out: Inhibition Rate at 10 nM (%); for inhibition at 0.5 µM: read-out: Inhibition Rate at 500 nM (%)
[4] = system: Human multiple myeloma cell (MM.1S); experiment: as above; details: Homo sapiens, MM1.S, 96 h; for inhibition at 0.01 µM: read-out: Inhibition Rate at 10 nM (%); for inhibition at 0.5 µM: read-out: Inhibition Rate at 500 nM (%)
[5] = system: Human breast cancer cell (MCF-7); experiment: as above; details: MCF7, 96 h; for inhibition at 0.01 µM: read-out: Inhibition Rate at 10 nM (%); for inhibition at 0.5 µM: read-out: Inhibition Rate at 500 nM (%)
IKZF2 = biological target: T1, IKZF2 (Homo sapiens, UniProt Q96SW2+Q9UKS7); experiment: Western blot, degradation of substrate protein in hPBMCs; format: cell-based
T1 construct: effects of the compounds of the present disclosure on the expression of target proteins in cells; endogenous in cells; host or cells: human PBMCs (Milecell Biotechnologies)
T1 sequence (Q9UKS7 whole entry): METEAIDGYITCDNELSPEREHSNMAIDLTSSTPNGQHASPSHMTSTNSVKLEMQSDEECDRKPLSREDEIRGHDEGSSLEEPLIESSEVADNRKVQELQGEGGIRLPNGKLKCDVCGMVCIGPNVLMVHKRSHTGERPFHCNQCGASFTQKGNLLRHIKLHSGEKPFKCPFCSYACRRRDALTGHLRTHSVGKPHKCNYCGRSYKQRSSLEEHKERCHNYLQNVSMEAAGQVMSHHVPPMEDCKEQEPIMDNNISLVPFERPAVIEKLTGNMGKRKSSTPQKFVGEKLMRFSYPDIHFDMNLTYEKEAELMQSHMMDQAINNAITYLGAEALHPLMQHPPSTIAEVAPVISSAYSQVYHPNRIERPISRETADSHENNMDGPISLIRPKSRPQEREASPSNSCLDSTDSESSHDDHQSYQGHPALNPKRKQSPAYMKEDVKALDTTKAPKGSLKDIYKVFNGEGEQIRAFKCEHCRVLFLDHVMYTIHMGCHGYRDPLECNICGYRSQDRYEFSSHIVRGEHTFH
T1 sequence (Q96SW2 whole entry): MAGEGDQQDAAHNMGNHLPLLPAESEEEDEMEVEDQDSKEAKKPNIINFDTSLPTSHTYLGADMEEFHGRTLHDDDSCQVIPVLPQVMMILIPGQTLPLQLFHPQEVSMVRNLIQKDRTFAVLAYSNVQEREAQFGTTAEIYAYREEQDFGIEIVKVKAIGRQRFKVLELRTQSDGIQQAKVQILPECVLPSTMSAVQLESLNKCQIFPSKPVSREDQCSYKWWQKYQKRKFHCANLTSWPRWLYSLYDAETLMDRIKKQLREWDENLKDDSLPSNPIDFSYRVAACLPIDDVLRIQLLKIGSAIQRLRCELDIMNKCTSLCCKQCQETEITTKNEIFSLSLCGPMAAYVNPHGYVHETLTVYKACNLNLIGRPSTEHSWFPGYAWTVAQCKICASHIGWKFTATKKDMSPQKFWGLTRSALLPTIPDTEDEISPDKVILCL
T1 sequence (Q16531 whole entry partner): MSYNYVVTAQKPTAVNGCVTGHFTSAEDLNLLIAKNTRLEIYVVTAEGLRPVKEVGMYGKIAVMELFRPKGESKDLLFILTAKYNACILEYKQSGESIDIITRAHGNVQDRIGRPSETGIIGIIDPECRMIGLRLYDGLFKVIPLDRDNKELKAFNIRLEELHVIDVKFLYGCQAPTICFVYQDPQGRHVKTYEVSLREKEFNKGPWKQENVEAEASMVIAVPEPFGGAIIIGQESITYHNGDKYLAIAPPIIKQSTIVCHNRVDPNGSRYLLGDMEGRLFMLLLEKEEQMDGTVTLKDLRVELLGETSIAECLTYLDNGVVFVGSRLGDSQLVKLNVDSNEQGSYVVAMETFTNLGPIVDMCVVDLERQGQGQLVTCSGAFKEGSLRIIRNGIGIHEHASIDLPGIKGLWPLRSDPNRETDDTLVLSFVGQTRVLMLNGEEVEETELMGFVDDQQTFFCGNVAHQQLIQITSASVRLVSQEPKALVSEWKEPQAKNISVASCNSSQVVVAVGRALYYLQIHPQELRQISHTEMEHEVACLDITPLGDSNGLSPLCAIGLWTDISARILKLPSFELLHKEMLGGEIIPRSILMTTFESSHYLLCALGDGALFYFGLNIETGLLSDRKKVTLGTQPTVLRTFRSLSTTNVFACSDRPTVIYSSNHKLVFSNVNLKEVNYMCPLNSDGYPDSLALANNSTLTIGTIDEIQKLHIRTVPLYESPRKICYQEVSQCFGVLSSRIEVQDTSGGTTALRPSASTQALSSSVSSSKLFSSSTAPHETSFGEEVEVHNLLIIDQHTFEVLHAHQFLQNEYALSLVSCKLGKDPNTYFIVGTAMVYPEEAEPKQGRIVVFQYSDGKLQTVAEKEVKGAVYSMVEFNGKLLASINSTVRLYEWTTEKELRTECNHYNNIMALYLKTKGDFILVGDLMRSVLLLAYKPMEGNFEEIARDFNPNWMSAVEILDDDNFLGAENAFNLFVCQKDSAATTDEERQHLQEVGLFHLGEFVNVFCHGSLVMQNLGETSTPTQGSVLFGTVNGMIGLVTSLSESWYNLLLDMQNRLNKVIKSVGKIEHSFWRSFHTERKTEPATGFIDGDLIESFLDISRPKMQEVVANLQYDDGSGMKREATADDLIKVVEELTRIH

IKZF1 = biological target: T2, IKZF1 (Homo sapiens, UniProt Q13422+Q96SW2); experiment: as above; format: cell-based
T2 construct: effects of the compounds of the present disclosure on the expression of target proteins in cells; endogenous in cells; host or cells: human PBMCs (Milecell Biotechnologies)
T2 sequence (Q13422 whole entry): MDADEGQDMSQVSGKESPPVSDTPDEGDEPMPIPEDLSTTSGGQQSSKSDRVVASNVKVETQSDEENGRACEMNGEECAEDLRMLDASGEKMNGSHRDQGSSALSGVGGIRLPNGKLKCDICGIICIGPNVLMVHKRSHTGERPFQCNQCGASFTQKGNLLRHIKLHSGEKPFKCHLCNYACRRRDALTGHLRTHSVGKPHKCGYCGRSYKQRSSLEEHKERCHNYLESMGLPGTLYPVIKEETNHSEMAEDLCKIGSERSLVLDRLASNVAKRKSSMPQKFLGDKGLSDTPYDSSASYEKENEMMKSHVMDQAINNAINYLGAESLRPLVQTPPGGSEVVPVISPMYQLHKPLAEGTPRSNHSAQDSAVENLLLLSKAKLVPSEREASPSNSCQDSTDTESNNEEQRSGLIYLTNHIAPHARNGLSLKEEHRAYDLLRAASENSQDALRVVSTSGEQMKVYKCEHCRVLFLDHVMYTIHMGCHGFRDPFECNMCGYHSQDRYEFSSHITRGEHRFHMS
T2 sequence (Q96SW2 whole entry): as the sequence (Q96SW2 whole entry) above
T2 sequence (Q16531 whole entry partner): as the sequence (Q16531 whole entry partner) above

WEE1 = biological target: T3, WEE1 (Homo sapiens, UniProt P30291+Q96SW2); experiment: as above; format: cell-based
T3 construct: effects of the compounds of the present disclosure on the expression of target proteins in cells; endogenous in cells; host or cells: human PBMCs (Milecell Biotechnologies)
T3 sequence (P30291 whole entry): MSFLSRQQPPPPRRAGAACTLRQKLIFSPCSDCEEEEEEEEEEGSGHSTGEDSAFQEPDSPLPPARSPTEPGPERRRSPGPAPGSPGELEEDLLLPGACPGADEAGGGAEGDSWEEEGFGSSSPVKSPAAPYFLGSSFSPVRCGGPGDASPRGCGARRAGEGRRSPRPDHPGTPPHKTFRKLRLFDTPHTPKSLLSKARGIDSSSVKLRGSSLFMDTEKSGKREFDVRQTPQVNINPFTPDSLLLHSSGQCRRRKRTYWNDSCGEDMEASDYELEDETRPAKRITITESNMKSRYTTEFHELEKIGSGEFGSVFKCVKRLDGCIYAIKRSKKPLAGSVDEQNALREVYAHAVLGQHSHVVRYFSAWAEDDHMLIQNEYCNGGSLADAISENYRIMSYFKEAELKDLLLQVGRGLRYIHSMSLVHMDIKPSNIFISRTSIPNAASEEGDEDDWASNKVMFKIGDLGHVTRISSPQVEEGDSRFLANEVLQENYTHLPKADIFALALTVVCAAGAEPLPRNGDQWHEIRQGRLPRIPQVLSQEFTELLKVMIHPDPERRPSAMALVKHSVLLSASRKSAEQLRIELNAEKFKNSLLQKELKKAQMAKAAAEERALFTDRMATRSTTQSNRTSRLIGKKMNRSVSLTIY
T3 sequence (Q96SW2 whole entry): as the sequence (Q96SW2 whole entry) above
T3 sequence (Q16531 whole entry partner): as the sequence (Q16531 whole entry partner) above

IKZF3 = biological target: T4, IKZF3 (Homo sapiens, UniProt Q96SW2+Q9UKT9); experiment: as above; format: cell-based
T4 construct: effects of the compounds of the present disclosure on the expression of target proteins in cells; endogenous in cells; host or cells: human PBMCs (Milecell Biotechnologies)
T4 sequence (Q9UKT9 whole entry): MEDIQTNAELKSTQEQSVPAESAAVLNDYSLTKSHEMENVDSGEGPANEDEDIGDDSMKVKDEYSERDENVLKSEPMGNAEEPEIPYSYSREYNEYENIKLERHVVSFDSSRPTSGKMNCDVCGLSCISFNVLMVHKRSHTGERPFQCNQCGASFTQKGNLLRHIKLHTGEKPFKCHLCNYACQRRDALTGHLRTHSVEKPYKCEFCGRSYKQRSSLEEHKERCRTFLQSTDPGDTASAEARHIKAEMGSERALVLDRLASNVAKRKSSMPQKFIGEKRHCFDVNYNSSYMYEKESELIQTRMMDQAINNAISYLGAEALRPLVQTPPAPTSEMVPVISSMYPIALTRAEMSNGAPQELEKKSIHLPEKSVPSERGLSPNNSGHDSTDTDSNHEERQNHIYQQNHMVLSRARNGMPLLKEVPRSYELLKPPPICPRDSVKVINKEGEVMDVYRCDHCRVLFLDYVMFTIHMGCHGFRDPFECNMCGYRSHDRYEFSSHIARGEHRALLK
T4 sequence (Q96SW2 whole entry): as the sequence (Q96SW2 whole entry) above
T4 sequence (Q16531 whole entry partner): as the sequence (Q16531 whole entry partner) above

CK1α = biological target: T5, CK1α (Homo sapiens, UniProt P48729+Q96SW2); experiment: as above; format: cell-based
T5 construct: effects of the compounds of the present disclosure on the expression of target proteins in cells; endogenous in cells; host or cells: human PBMCs (Milecell Biotechnologies)
T5 sequence (P48729 whole entry): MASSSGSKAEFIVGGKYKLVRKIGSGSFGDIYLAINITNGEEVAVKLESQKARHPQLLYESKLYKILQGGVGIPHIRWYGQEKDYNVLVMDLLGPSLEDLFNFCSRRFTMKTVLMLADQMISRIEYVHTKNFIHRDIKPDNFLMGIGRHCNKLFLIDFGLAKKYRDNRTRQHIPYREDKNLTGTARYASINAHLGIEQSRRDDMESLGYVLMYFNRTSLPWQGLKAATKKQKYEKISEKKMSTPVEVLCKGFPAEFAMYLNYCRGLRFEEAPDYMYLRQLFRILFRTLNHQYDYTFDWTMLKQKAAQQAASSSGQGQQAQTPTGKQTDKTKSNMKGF
T5 sequence (Q96SW2 whole entry): as the sequence (Q96SW2 whole entry) above
T5 sequence (Q16531 whole entry partner): as the sequence (Q16531 whole entry partner) above

[6] = biological target: T6, human Cereblon WT GST-tagged protein (Homo sapiens, UniProt Q96SW2); experiment: CRBN-binding affinity, HTRF (CEREBLON BINDING kit); details: for inhibition at 0.5 µM: read-out: Inhibition Rate at 0.5 µM (%); for inhibition at 2 µM: read-out: Inhibition Rate at 2 µM (%)
T6 construct: purchased CISBIO 64BDCRBNPEH
T6 sequence (Q96SW2 whole entry): as the sequence (Q96SW2 whole entry) above

[7] = 24 hours treatment, compounds at 50 nM and 500 nM (concentration behind the class not stated)
[8] = Western blot, 24 hours of compound treatment, compounds tested at 50 nM and 500 nM (concentration for the table not stated)

| SMILES | inhibition at 0.01 µM [1] [%] | inhibition at 0.5 µM [1] [%] | GSPT1 substrate protein remaining % (GSPT1; [7]) | inhibition at 0.01 µM [2] [%] | inhibition at 0.5 µM [2] [%] | inhibition at 0.01 µM [3] [%] | inhibition at 0.5 µM [3] [%] | inhibition at 0.01 µM [4] [%] | inhibition at 0.5 µM [4] [%] | inhibition at 0.01 µM [5] [%] | inhibition at 0.5 µM [5] [%] | IKZF2 substrate protein remaining % (IKZF2; [7]) | inhibition at 0.5 µM [6] [%] | inhibition at 2 µM [6] [%] | GSPT1 substrate protein remaining % (GSPT1; [8]) | IKZF2 substrate protein remaining % (IKZF2; [8]) | IKZF 1 substrate protein remaining % (IKZF1; [8]) | Wee1 substrate protein remaining % (WEE1; [8]) | IKZF3 substrate protein remaining % (IKZF3; [8]) | CK1α substrate protein remaining % (CK1α; [8]) | further results |
| --- | --- | --- | --- | --- | --- | --- | --- | --- | --- | --- | --- | --- | --- | --- | --- | --- | --- | --- | --- | --- | --- |
| O=C1CCC(N2Cc3cc(CN4CC=C(c5cccc6c(F)cccc56)CC4)ccc3C2=S)C(=O)N1 (stereo not drawn) [GT-09276, 3-(5-((4-(5-fluoronaphthalen-1-yl)-3,6-dihydropyridin-1(2H)-yl)methyl)-1-thioxoisoindolin-2-yl)piperidine-2,6-dione] | 70 to 80 | 70 to 80 | A (0% ≤ substrate protein remaining % ≤ 80%) | 20 to 30 | 70 to 80 | 80 to 100 | 80 to 100 | 70 to 80 | 80 to 100 | 30 to 40 | 80 to 100 | A (0% ≤ substrate protein remaining % ≤ 80%) | 40 to 53 | 80 to 100 |  |  |  |  |  |  | IKZF 1 substrate protein remaining % (IKZF1; [7]): B (80%< substrate protein remaining %≤ 100%); Wee1 substrate protein remaining % (WEE1; [7]): A (0% ≤ substrate protein remaining % ≤ 80%); IKZF3 substrate protein remaining % (IKZF3; [7]): A (0% ≤ substrate protein remaining % ≤ 80%); CK1α substrate protein remaining % (CK1α; [7]): A (0% ≤ substrate protein remaining % ≤ 80%) |
| O=C1CCC(N2Cc3cc(CN4CC=C(c5cncc(Cl)c5)CC4)ccc3C2=S)C(=O)N1 (stereo not drawn) [GT-08490, 3-(5-((5-chloro-3',6'-dihydro-[3,4'-bipyridin]-1'(2'H)-yl)methyl)-1-thioxoisoindolin-2-yl)piperidine-2,6-dione] | 0 to 5 | 80 to 100 |  | 20 to 30 | 70 to 80 | 40 to 60 | 80 to 100 | 50 to 60 | 80 to 100 | 30 to 40 | 50 to 60 |  | 60 to 80 | 80 to 100 | A (0% ≤ substrate protein remaining % ≤ 80%) | A (0% ≤ substrate protein remaining % ≤ 80%) | B (80%< substrate protein remaining %≤ 100%) | A (0% ≤ substrate protein remaining % ≤ 80%) | A (0% ≤ substrate protein remaining % ≤ 80%) | B (80%< substrate protein remaining %≤ 100%) |  |
| O=C1CCC(N2Cc3cc(CN4CC=C(c5n[nH]c6cc(F)ccc56)CC4)ccc3C2=S)C(=O)N1 (stereo not drawn) [GT-09270, 3-(5-((4-(6-fluoro-1H-indazol-3-yl)-3,6-dihydropyridin-1(2H)-yl)methyl)-1-thioxoisoindolin-2-yl)piperidine-2,6-dione] | 70 to 80 | 80 to 100 | B (80%< substrate protein remaining %≤ 100%) | 20 to 30 | 70 to 80 | 80 to 100 | 80 to 100 | 50 to 60 | 80 to 100 | 10 to 20 | 70 to 80 | B (80%< substrate protein remaining %≤ 100%) | 60 to 80 | 80 to 100 |  |  |  |  |  |  | IKZF 1 substrate protein remaining % (IKZF1; [7]): A (0% ≤ substrate protein remaining % ≤ 80%); Wee1 substrate protein remaining % (WEE1; [7]): A (0% ≤ substrate protein remaining % ≤ 80%); IKZF3 substrate protein remaining % (IKZF3; [7]): B (80%< substrate protein remaining %≤ 100%); CK1α substrate protein remaining % (CK1α; [7]): A (0% ≤ substrate protein remaining % ≤ 80%) |
| O=C1CCC(N2Cc3cc(CN4CC=C(c5cncc(Cl)c5Cl)CC4)ccc3C2=S)C(=O)N1 (stereo not drawn) [GT-08489, 3-(5-((4,5-dichloro-3',6'-dihydro-[3,4'-bipyridin]-1'(2'H)-yl)methyl)-1-thioxoisoindolin-2-yl)piperidine-2,6-dione] | 0 to 5 | 80 to 100 |  | 0 to 5 | 70 to 80 | 30 to 40 | 80 to 100 | 10 to 20 | 80 to 100 |  | 50 to 60 |  | 60 to 80 | 80 to 100 | A (0% ≤ substrate protein remaining % ≤ 80%) | A (0% ≤ substrate protein remaining % ≤ 80%) | B (80%< substrate protein remaining %≤ 100%) | A (0% ≤ substrate protein remaining % ≤ 80%) | A (0% ≤ substrate protein remaining % ≤ 80%) | B (80%< substrate protein remaining %≤ 100%) |  |
| O=C1CCC(N2Cc3cc(CN4CC=C(c5ncccc5F)CC4)ccc3C2=S)C(=O)N1 (stereo not drawn) [GT-08491, 3-(5-((3-fluoro-3',6'-dihydro-[2,4'-bipyridin]-1'(2'H)-yl)methyl)-1-thioxoisoindolin-2-yl)piperidine-2,6-dione] | 20 to 30 | 80 to 100 |  | 10 to 20 | 70 to 80 | 18 to 25 | 80 to 100 | 10 to 20 | 80 to 100 |  | 40 to 50 |  | 80 to 100 | 80 to 100 | A (0% ≤ substrate protein remaining % ≤ 80%) | B (80%< substrate protein remaining %≤ 100%) | B (80%< substrate protein remaining %≤ 100%) | A (0% ≤ substrate protein remaining % ≤ 80%) | B (80%< substrate protein remaining %≤ 100%) | B (80%< substrate protein remaining %≤ 100%) |  |
| O=C1CCC(N2Cc3cc(CN4CCN(c5n[nH]c6cc(F)ccc56)CC4)ccc3C2=S)C(=O)N1 (stereo not drawn) [GT-09260, 3-(5-((4-(6-fluoro-1H-indazol-3-yl)piperazin-1-yl)methyl)-1-thioxoisoindolin-2-yl)piperidine-2,6-dione] | 20 to 30 | 80 to 100 | A (0% ≤ substrate protein remaining % ≤ 80%) | 5 to 10 | 40 to 50 | 18 to 25 | 80 to 100 | 10 to 20 | 80 to 100 |  |  | B (80%< substrate protein remaining %≤ 100%) | 60 to 80 | 80 to 100 |  |  |  |  |  |  | IKZF 1 substrate protein remaining % (IKZF1; [7]): B (80%< substrate protein remaining %≤ 100%); Wee1 substrate protein remaining % (WEE1; [7]): B (80%< substrate protein remaining %≤ 100%); IKZF3 substrate protein remaining % (IKZF3; [7]): B (80%< substrate protein remaining %≤ 100%); CK1α substrate protein remaining % (CK1α; [7]): B (80%< substrate protein remaining %≤ 100%) |
| O=C1CCC(N2Cc3cc(CN4CC=C(c5ccnc(Cl)c5Cl)CC4)ccc3C2=S)C(=O)N1 (stereo not drawn) [GT-08482, 3-(5-((2',3'-dichloro-3,6-dihydro-[4,4'-bipyridin]-1(2H)-yl)methyl)-1-thioxoisoindolin-2-yl)piperidine-2,6-dione] | -5 to 0 | 80 to 100 |  | 10 to 20 | 60 to 70 | 40 to 60 | 80 to 100 | 50 to 60 | 80 to 100 |  |  |  | 60 to 80 | 80 to 100 | A (0% ≤ substrate protein remaining % ≤ 80%) | B (80%< substrate protein remaining %≤ 100%) | B (80%< substrate protein remaining %≤ 100%) | A (0% ≤ substrate protein remaining % ≤ 80%) | B (80%< substrate protein remaining %≤ 100%) | B (80%< substrate protein remaining %≤ 100%) |  |
